Assay results reported in paper PMC9617636 (Antiviral Research, 2022).
Like-named read-outs stand apart in the source and are kept apart here.

Assays:
B.1.1.7 SARS-CoV-2 = test: Antiviral assay in Calu3 cells; format: cell-based
SARS-CoV-2 viral RNA = format: cell-based
SARS-CoV-2 nucleocapsid = format: cell-based
in vitro [1] = details: African green monkey
SARS-CoV-2 [2] = test: Antiviral plaque assay in Vero-E6 cells; format: cell-based
[3] = tested on: −1 PRF signal of SARS-CoV-2; format: cell-based
in vitro [4] = details: human
Mucilair tissues = format: cell-based, human; details: MTS assay at 96hpi, 30 μg/tissue
in vitro [5] = details: dog
Influenza A virus (H1N1) = test: Antiviral activity against Influenza A virus; format: cell-based, Influenza virus A/Netherlands/602/2009
SARS-CoV-2 GFP = format: cell-based
SARS-CoV-2 [6] = format: cell-based
HCoV-229e = test: microbe, parasite or virus in culture; format: cell-based; details: Human coronavirus 229E
in vitro [7] = details: human; remark: listed apart in the source
A549 cells = format: cell-based; details: 600 μM
Vero-E6 cells = details: listed as of SARS-CoV-2 B.1.1.7 (Alpha)
[8] = Severe acute respiratory syndrome coronavirus 2, Calu-3, read-out: EC50 (95% CI)
[9] = CC50, row of SARS-CoV-2 B.1.1.7 (Alpha)
[10] = Severe acute respiratory syndrome coronavirus 2, Vero C1008, read-out: EC50 (95% CI)
[11] = Severe acute respiratory syndrome coronavirus 2, Vero C1008, read-out: EC90 (95% CI), SARS-CoV-2 B.1.1.7 (Alpha), Vero-E6

## CCNCC1CCN(c2c(F)cc3c(=O)c(C(=O)O)cn(CC)c3c2F)C1 (stereo not shown) [Merafloxacin]
B.1.1.7 SARS-CoV-2; [8]
  EC50: 21.8 µM
SARS-CoV-2 viral RNA
  viral RNA replication: inhibition of viral RNA replication
SARS-CoV-2 nucleocapsid
  viral protein production (nucleocapsid over alpha tubulin): decrease in viral protein production
In vitro [1]; [9]
  CC50: > 100 µM
SARS-CoV-2 [2]; [10]
  EC50: 23.7 µM
SARS-CoV-2 [2]; [11]
  EC90: 116 µM
[3]
  −1 PRF efficiency: reduction in the −1 PRF efficiency
In vitro [4]
  CC50: > 100 µM

## CN[C@@H]1[C@@H](O)[C@@H](O[C@@H]2[C@@H](O)[C@H](O[C@H]3O[C@H]([C@@H](C)O)[C@@H](O)[C@H](O)[C@H]3N)[C@@H](N)C[C@H]2N)OC[C@]1(C)O [Geneticin]
B.1.1.7 SARS-CoV-2; [8]
  EC50: 164 µM
Mucilair tissues
  viability of the tissues: without a decrease in viability
SARS-CoV-2 viral RNA
  viral RNA replication: inhibition of viral RNA replication
In vitro [5]
  CC50: 5840 µM
SARS-CoV-2 nucleocapsid
  viral protein production (nucleocapsid over alpha tubulin): decrease in viral protein production
Influenza A virus (H1N1); read-out: EC50 (95% CI)
  EC50: > 600 µM
Influenza A virus (H1N1); unrelated virus
  antiviral activity against Influenza A virus (H1N1): lack of activity
SARS-CoV-2 GFP
  GFP intensity in the infected cells: significantly reduced
  number of infected (GFP positive) cells: marked reduction in the number of infected cells
In vitro [1]; [9]
  CC50: 3950 µM
In vitro [1]; CC50, row of SARS-CoV-2 B.1.351 (Beta)
  CC50: 3950 µM
In vitro [1]; CC50, row of SARS-CoV-2 B.1.617.2 (Delta)
  CC50: 3950 µM
In vitro [1]; CC50, row of SARS-CoV-2 BA.1 (Omicron)
  CC50: 934 µM
SARS-CoV-2 [6]
  protection from viral infection (apical viral RNA and plaque titre): significant protection from viral infections
SARS-CoV-2 [2]; [10]
  EC50: 47.2 µM
SARS-CoV-2 [2]; Severe acute respiratory syndrome coronavirus 2, Vero C1008, read-out: EC50 (95% CI), SARS-CoV-2 B.1.160, Vero-E6
  EC50: 31.6 µM
SARS-CoV-2 [2]; Severe acute respiratory syndrome coronavirus 2, Vero C1008, read-out: EC50 (95% CI), SARS-CoV-2 B.1.177, Vero-E6
  EC50: 102 µM
SARS-CoV-2 [2]; Severe acute respiratory syndrome coronavirus 2, Vero C1008, read-out: EC50 (95% CI), SARS-CoV-2 B.1.258, Vero-E6
  EC50: 42.4 µM
SARS-CoV-2 [2]; Severe acute respiratory syndrome coronavirus 2, Vero C1008, read-out: EC50 (95% CI), SARS-CoV-2 B.1.617.2 (Delta), Vero-E6
  EC50: 32.8 µM
SARS-CoV-2 [2]; Severe acute respiratory syndrome coronavirus 2, Vero C1008, read-out: EC50 (95% CI), SARS-CoV-2 BA.1 (Omicron), Vero-E6
  EC50: 25.7 µM
SARS-CoV-2 [2]; [11]
  EC90: 245 µM
SARS-CoV-2 [2]; Severe acute respiratory syndrome coronavirus 2, Vero C1008, read-out: EC90 (95% CI), SARS-CoV-2 B.1.160, Vero-E6
  EC90: 150 µM
SARS-CoV-2 [2]; Severe acute respiratory syndrome coronavirus 2, Vero C1008, read-out: EC90 (95% CI), SARS-CoV-2 B.1.177, Vero-E6
  EC90: 407 µM
SARS-CoV-2 [2]; Severe acute respiratory syndrome coronavirus 2, Vero C1008, read-out: EC90 (95% CI), SARS-CoV-2 B.1.258, Vero-E6
  EC90: 163 µM
SARS-CoV-2 [2]; Severe acute respiratory syndrome coronavirus 2, Vero C1008, read-out: EC90 (95% CI), SARS-CoV-2 B.1.351 (Beta), Vero-E6
  EC90: 542 µM
SARS-CoV-2 [2]; Severe acute respiratory syndrome coronavirus 2, Vero C1008, read-out: EC90 (95% CI), SARS-CoV-2 B.1.617.2 (Delta), Vero-E6
  EC90: 201 µM
SARS-CoV-2 [2]; Severe acute respiratory syndrome coronavirus 2, Vero C1008, read-out: EC90 (95% CI), SARS-CoV-2 BA.1 (Omicron), Vero-E6
  EC90: 155 µM
HCoV-229e; Huh-7, read-out: EC50 (95% CI)
  EC50: 7.21 µM
HCoV-229e; Huh-7, read-out: EC90 (95% CI)
  EC90: 23.9 µM
In vitro [7]
  CC50: 684 µM
[3]
  −1 PRF efficiency: reduction in the −1 PRF efficiency
A549 cells
  protein synthesis in the cell: not impaired
In vitro [4]
  CC50: > 600 µM

## Sotrovimab
B.1.1.7 SARS-CoV-2; read-out: EC50 (95% CI)
  EC50: 0.0041 µM
Calu3 cells
  CC50: > 0.68 µM
Vero-E6 cells
  CC50: > 0.68 µM
SARS-CoV-2 [2]; read-out: EC50 (95% CI)
  EC50: 0.00013 µM
SARS-CoV-2 [2]; read-out: EC90 (95% CI), SARS-CoV-2 B.1.1.7 (Alpha), Vero-E6
  EC90: 0.0042 µM
